What was measured:
[1] = test system: yellow nutsedge; test: Postemergent control of plant species; assay type: in vivo, Cyperus esculentus; conditions: Cyperus, post-emergence, 336 h, read-out: percent postemergent control
Experimental: (§1) In representative operations, each compound to be utilized in a series of tests is dissolved in acetone to one-half of the final volume (twice the final concentration) to be used and the acetone solution in each case is admixed with an equal volume of water containing 0.1 percent by weight of surface active material. The compositions, generally in the nature of an emulsion, were employed to spray separate respective plant species which had been grown to a 2-4 leaf stage in soil of good nutrient content in a greenhouse. The various beds were positioned side by side and exposed to substantially identical conditions of temperature and light. Each bed was maintained so as to prevent any interaction with test compounds in different seed beds. Other plants were left untreated to serve as controls. After treatment, the plants were maintained for about two weeks under greenhouse conditions conducive for good plant growth and watered as necessary. Control refers to the reduction in growth compared to the observed results of the same untreated species.

[2] = test system: barnyardgrass; test: Postemergent control of plant species; assay type: in vivo, Echinochloa crusgalli; conditions: Echinochloa crus-galli, post-emergence, 336 h, read-out: percent postemergent control
Experimental: as §1

[3] = test system: annual morning glory; test: Postemergent control of plant species; assay type: in vivo, Ipomoea spp.; conditions: Ipomoea, post-emergence, 336 h, read-out: percent postemergent control
Experimental: as §1

[4] = test system: crabgrass; test: Postemergent control of plant species; assay type: in vivo, Digitaria spp.; conditions: Digitaria sanguinalis, post-emergence, 336 h, read-out: percent postemergent control
Experimental: as §1

[5] = test system: wheat; test: Postemergent control of plant species; assay type: in vivo, Triticum aestivum; conditions: Triticum aestivum, post-emergence, 336 h, read-out: percent postemergent control
Experimental: as §1

[6] = test system: johnson grass; test: Postemergent control of plant species; assay type: in vivo, Sorghum halepense; conditions: Sorghum halepense, post-emergence, 336 h, read-out: percent postemergent control
Experimental: as §1

[7] = test system: jimsonweed; test: Postemergent control of plant species; assay type: in vivo, Datura stramonium; conditions: Datura stramonium, post-emergence, 336 h, read-out: percent postemergent control
Experimental: as §1

[8] = test system: sorghum; test: Postemergent control of plant species; assay type: in vivo, Sorghum vulgare; conditions: Sorghum, post-emergence, 336 h, read-out: percent postemergent control
Experimental: as §1

[9] = test system: wild oats; test: Postemergent control of plant species; assay type: in vivo, Avena fatua; conditions: Avena fatua, post-emergence, 336 h, read-out: percent postemergent control
Experimental: as §1

[10] = test system: rice; test: Postemergent control of plant species; assay type: in vivo, Oryza sativa; conditions: Oryza sativa, post-emergence, 336 h, read-out: percent postemergent control
Experimental: as §1

[11] = test system: pigweed; test: Postemergent control of plant species; assay type: in vivo, Amaranthus spp.; conditions: Amaranthus retroflexus, post-emergence, 336 h, read-out: percent postemergent control
Experimental: as §1

[12] = test system: velvetleaf; test: Postemergent control of plant species; assay type: in vivo, Abutilon theophrasti; conditions: Abutilon theophrasti, post-emergence, 336 h, read-out: percent postemergent control
Experimental: as §1

[13] = test system: yellow foxtail; test: Postemergent control of plant species; assay type: in vivo, Setaria lutescens; conditions: Setaria, post-emergence, 336 h, read-out: percent postemergent control
Experimental: as §1

[14] = test system: corn; test: Postemergent control of plant species; assay type: in vivo, Zea mays; conditions: Zea mays, post-emergence, 336 h, read-out: percent postemergent control
Experimental: as §1

[15] = test system: soybean; test: Postemergent control of plant species; assay type: in vivo, Glycine max.; conditions: Glycine max, post-emergence, 336 h, read-out: percent postemergent control
Experimental: as §1

[16] = test system: rape; test: Postemergent control of plant species; assay type: in vivo, Brassica napus; conditions: Brassica napus, post-emergence, 336 h, read-out: percent postemergent control
Experimental: as §1

[17] = test system: sugar beet; test: Postemergent control of plant species; assay type: in vivo, Beta saccharifera; conditions: Beta vulgaris, post-emergence, 336 h, read-out: percent postemergent control
Experimental: as §1

[18] = test system: cotton; test: Postemergent control of plant species; assay type: in vivo, Gossypium spp.; conditions: Gossypium hirsutum, post-emergence, 336 h, read-out: percent postemergent control
Experimental: as §1

[19] = test system: cocklebur; test: Postemergent control of plant species; assay type: in vivo, Xanthium spp.; conditions: Xanthium strumarium, post-emergence, 336 h, read-out: percent postemergent control
Experimental: as §1

[20] = test system: sugar beet; test: Preemergent control of plant species; assay type: in vivo, Beta saccharifera; conditions: Beta vulgaris, pre-emergence, 336 h; 0.25 lb/acre; read-out: percent preemergent control
In short: (§2)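 Test compositions were applied evenly to the surface of freshly seeded soil beds and kept under greenhouse conditions for two weeks. Percent control reflects growth reduction compared with water-treated beds of the same species.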

[21] = test system: corn; test: Preemergent control of plant species; assay type: in vivo, Zea mays; conditions: Zea mays, pre-emergence, 336 h; 0.25 lb/acre; read-out: percent preemergent control
In short: as §2

[22] = test system: annual morning glory; test: Preemergent control of plant species; assay type: in vivo, Ipomoea spp.; conditions: Ipomoea, pre-emergence, 336 h; 0.25 lb/acre; read-out: percent preemergent control
In short: as §2

[23] = test system: yellow nutsedge; test: Preemergent control of plant species; assay type: in vivo, Cyperus esculentus; conditions: Cyperus, pre-emergence, 336 h; 0.25 lb/acre; read-out: percent preemergent control
In short: as §2

[24] = test system: sorghum; test: Preemergent control of plant species; assay type: in vivo, Sorghum vulgare; conditions: Sorghum, pre-emergence, 336 h; 0.25 lb/acre; read-out: percent preemergent control
In short: as §2

[25] = test system: rape; test: Preemergent control of plant species; assay type: in vivo, Brassica napus; conditions: Brassica napus, pre-emergence, 336 h; 0.25 lb/acre; read-out: percent preemergent control
In short: as §2

[26] = test system: johnson grass; test: Preemergent control of plant species; assay type: in vivo, Sorghum halepense; conditions: Sorghum halepense, pre-emergence, 336 h; 0.25 lb/acre; read-out: percent preemergent control
In short: as §2

[27] = test system: yellow foxtail; test: Preemergent control of plant species; assay type: in vivo, Setaria lutescens; conditions: Setaria, pre-emergence, 336 h; 0.25 lb/acre; read-out: percent preemergent control
In short: as §2

[28] = test system: velvetleaf; test: Preemergent control of plant species; assay type: in vivo, Abutilon theophrasti; conditions: Abutilon theophrasti, pre-emergence, 336 h; 0.25 lb/acre; read-out: percent preemergent control
In short: as §2

[29] = test system: cotton; test: Preemergent control of plant species; assay type: in vivo, Gossypium spp.; conditions: Gossypium hirsutum, pre-emergence, 336 h; 0.25 lb/acre; read-out: percent preemergent control
In short: as §2

[30] = test system: soybean; test: Preemergent control of plant species; assay type: in vivo, Glycine max.; conditions: Glycine max, pre-emergence, 336 h; 0.25 lb/acre; read-out: percent preemergent control
In short: as §2

[31] = test system: barnyardgrass; test: Preemergent control of plant species; assay type: in vivo, Echinochloa crusgalli; conditions: Echinochloa crus-galli, pre-emergence, 336 h; 0.25 lb/acre; read-out: percent preemergent control
In short: as §2

[32] = test system: jimsonweed; test: Preemergent control of plant species; assay type: in vivo, Datura stramonium; conditions: Datura stramonium, pre-emergence, 336 h; 0.25 lb/acre; read-out: percent preemergent control
In short: as §2

[33] = test system: wheat; test: Preemergent control of plant species; assay type: in vivo, Triticum aestivum; conditions: Triticum aestivum, pre-emergence, 336 h; 0.25 lb/acre; read-out: percent preemergent control
In short: as §2

[34] = test system: rice; test: Preemergent control of plant species; assay type: in vivo, Oryza sativa; conditions: Oryza sativa, pre-emergence, 336 h; 0.25 lb/acre; read-out: percent preemergent control
In short: as §2

[35] = test system: wild oats; test: Preemergent control of plant species; assay type: in vivo; conditions: Avena fatua, pre-emergence, 336 h; 0.25 lb/acre; read-out: percent preemergent control
In short: as §2

SMILES | pest or weed control at 500 ppm [1] [%] | pest or weed control at 500 ppm [2] [%] | pest or weed control at 500 ppm [3] [%] | pest or weed control at 500 ppm [4] [%] | plant injury at 500 ppm [5] [%] | pest or weed control at 500 ppm [6] [%] | pest or weed control at 500 ppm [7] [%] | plant injury at 500 ppm [8] [%] | pest or weed control at 500 ppm [9] [%] | plant injury at 500 ppm [10] [%] | pest or weed control at 500 ppm [11] [%] | pest or weed control at 500 ppm [12] [%] | pest or weed control at 500 ppm [13] [%] | plant injury at 500 ppm [14] [%] | plant injury at 500 ppm [15] [%] | plant injury at 500 ppm [16] [%] | plant injury at 500 ppm [17] [%] | plant injury at 500 ppm [18] [%] | pest or weed control at 500 ppm [19] [%] | plant injury at 280.212 g/ha [20] [%] | further results
Cc1cc(C)n2nc(S(=O)(=O)Nc3c(C)ccc(Cl)c3Cl)nc2n1 [Compound 74] | 95 | 70 | 80 | 0 | 0 | 50 | 90 | 80 | 0 | 0 | 70 | 100 | 60 | 0 | 80 | 100 | 100 | 70 | 100 |  | 
Cc1nc2nc(S(=O)(=O)Nc3ccccc3[N+](=O)[O-])nn2c2c1CCC2 [Compound 105] | 0 | 20 | 70 | 0 | 0 | 0 | 60 | 0 | 0 | 20 | 60 | 0 |  | 80 | 95 | 40 | 90 | 35 | 100 |  | 
COc1ccc(Cl)c(NS(=O)(=O)c2nc3nc(C)ccn3n2)c1Cl [Compound 170] | 98 | 75 | 70 | 60 | 0 | 85 | 90 | 25 | 80 | 35 | 100 | 90 | 80 | 25 | 30 |  | 95 | 50 | 25 | 90 | plant injury at 280.212 g/ha [21]: 20%; pest or weed control at 280.212 g/ha [22]: 30%; pest or weed control at 280.212 g/ha [23]: 0%; plant injury at 280.212 g/ha [24]: 80%; plant injury at 280.212 g/ha [25]: 100%; pest or weed control at 280.212 g/ha [26]: 90%; pest or weed control at 280.212 g/ha [27]: 70%; pest or weed control at 280.212 g/ha [28]: 85%; plant injury at 280.212 g/ha [29]: 70%; plant injury at 280.212 g/ha [30]: 0%; pest or weed control at 280.212 g/ha [31]: 40%; pest or weed control at 280.212 g/ha [32]: 0%; plant injury at 280.212 g/ha [33]: 10%; plant injury at 280.212 g/ha [34]: 30%
Cc1ccn2nc(S(=O)(=O)N(c3c(F)cccc3F)S(=O)(=O)c3ccccc3)nc2n1 [Compound 298] | 0 | 65 | 50 | 25 | 0 | 50 | 50 | 40 |  | 40 | 100 | 80 | 75 | 0 | 0 | 85 | 80 | 35 | 50 | 100 | plant injury at 280.212 g/ha [21]: 40%; pest or weed control at 280.212 g/ha [22]: 70%; pest or weed control at 280.212 g/ha [23]: 100%; plant injury at 280.212 g/ha [24]: 95%; plant injury at 280.212 g/ha [25]: 100%; pest or weed control at 280.212 g/ha [26]: 95%; pest or weed control at 280.212 g/ha [27]: 100%; pest or weed control at 280.212 g/ha [28]: 100%; plant injury at 280.212 g/ha [29]: 100%; plant injury at 280.212 g/ha [30]: 0%; pest or weed control at 280.212 g/ha [31]: 100%; pest or weed control at 280.212 g/ha [32]: 100%; plant injury at 280.212 g/ha [33]: 50%; pest or weed control at 280.212 g/ha [35]: 50%; plant injury at 280.212 g/ha [34]: 95%

Source: patent US4740233A, “Substituted 1,2,4-triazolo[1,5-a]-pyrimidine-2-sulfonamides and compositions and methods of controlling undesired vegetation and suppressing the nitrification of ammonium nitrogen in soil” (The Dow Chemical Company, priority 1986, dated 1988)
